The results in this text go back to patent US20120115869A1, “TETRAZOLE DERIVATIVES” (MERCK SERONO S.A., priority 2009, published 2012).

pIC50: −log10 of the molar value.

One data set deals with T1, CRTH2 (DP2) (Homo sapiens, UniProt Q9Y5Y4).
T1 construct: host or cells: CHO cells
T1 sequence (Q9Y5Y4 1-395): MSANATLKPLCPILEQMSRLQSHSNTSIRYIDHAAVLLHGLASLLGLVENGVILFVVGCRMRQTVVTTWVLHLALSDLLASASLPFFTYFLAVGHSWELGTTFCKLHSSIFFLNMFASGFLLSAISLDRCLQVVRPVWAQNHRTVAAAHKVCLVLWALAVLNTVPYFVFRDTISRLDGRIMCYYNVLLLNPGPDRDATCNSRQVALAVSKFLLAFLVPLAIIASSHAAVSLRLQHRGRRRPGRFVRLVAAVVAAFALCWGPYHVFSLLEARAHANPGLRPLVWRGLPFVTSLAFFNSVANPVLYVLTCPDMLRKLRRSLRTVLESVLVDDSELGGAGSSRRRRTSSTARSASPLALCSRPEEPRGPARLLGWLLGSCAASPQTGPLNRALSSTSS
Nature of the data set: Radioligand binding Scintillation Proximity Assay ([3H]PGD2, hCRTH2-CHO cell membranes). To be noted: 1.5 nM [3H]PGD2, hCRTH2-CHO cell membranes, SPA. The gist of the method: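 Membranes from CHO cells stably expressing human CRTH2, made by nitrogen cavitation and differential centrifugation. Compounds competed with [3H]PGD2 at 1% DMSO for 90 min with agitation at room temperature. Non-specific binding taken with 10 μM PGD2.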
(Scintillation proximity formats need no separation of bound from free tracer.)

Data set [1] concerns the target T2, CRTH2 (Homo sapiens, UniProt Q9Y5Y4).
T2 construct: expressed in transfected cells; host or cells: CHO cells
T2 sequence (Q9Y5Y4 1-395): T1 sequence (Q9Y5Y4 1-395)
As to the kind of experiment: Cellular Dielectric Spectroscopy in CHO-CRTH2 cells. The note with it: fixed concentration of PGD2 (EC80), read-out: IC50(μM) (CDS, antagonist). Type of data set: cell-based. Here is the method:
Cellular Dielectric Spectroscopy (CDS) is a label-free technology based on the measurement of complex impedance changes (delta Z or dZ). Impedance (Z) is related to the ratio of voltage to current as described by Ohm's law (Z=V/I). In order to measure the changes in impedance that occur in response to receptor stimulation, mammalian cells are seeded onto a custom 96-well microtiter plate that contains electrodes at the bottom of each well Key contributors to the impedance measurements are changes in cell-substrate adherence, changes in cell shape and volume, and changes in cell-cell interactions. These factors individually or collectively affect the flow of current, influencing the magnitude and characteristics of the signal measured. G-protein coupled receptors ligand-induced activity can be measured using this technology and specific G protein coupling can be identified. Activities of reference agonist and antagonist molecules of CRTH2 have been measured using this assay and similar results were obtained compared to different functional assays.
CHO—CRTH2 cells are cultured in HAM's F12 (Lonza, Switzerland) supplemented with 10% foetal calf serum (PAA, Australia) and 400 μg/ml Geneticin. 100000 cells/well are seeded in standard 96 W Microplates (MDS Analytical Technologies) and incubated at 37° C. in 5% CO2 for 24 hours. Cells are washed twice with 135 μl of cell key buffer (Hank's Balanced Salt Solution 1× (HBSS) (Invitrogen) supplemented with 10 mM HEPES pH 7.4 in presence of 1% DMSO). […] Results are expressed as the amplitude between the highest and the lowest signal produced (max-min). Basal and maximum activities are measured, respectively in absence or presence of PGD2 (EC80).

Data set [2] relates to eosinophils (PGD2-induced cell shape change). As to the kind of experiment: PGD2-induced eosinophil cell shape assay in human whole blood. Type of data set: cell-based. The note with it: 10 nM PGD2 final. As to the method: The Compounds of Formula (I) were diluted in dimethylsulphoxide so that the total volume of dimethylsulfoxide was kept constant at 2% dimethylsulphoxide (Me2SO). Serial dilutions of 200 μM to 0.09 μM were prepared. Samples of 90 μl of human blood from healthy volunteers (Centre de Transfusion Sanguine de Genéve) were pre-incubated in polypropylene Falcon tubes (BD 352063) for 20 minutes in a water bath at 37° C. with 10 μl of diluted compounds. For CRTH2 activation, 100 μl PGD2 (Cayman 12010) at 20 nM was added (10 nM final) to each tube and cells were maintained at 37° C. For negative control cells were treated with PBS. After 10 minutes, cell activation was stopped with 120 μl Formaldehyde 10% (4% final, Fluka 41650) and cells were rested for 10 minutes at room temperature. Fixed cells were transferred into polypropylene tubes and then treated for 1 hour in a water bath at 37° C. with 2 ml of Triton-Surfact-Amps X-100 (Pierce 28314) at 0.166% (0.13% Triton final). After several washes with PBS (red cells lysed progressively during washes, two washes are necessary), cells were analyzed by flow cytometry on a FACSCalibur. In one embodiment, the compounds of Formula (I) of the present invention are capable of blocking the cell shape change of eosinophils induced by PGD2 in Whole Blood.

Data set [3] deals with T2, CRTH2. Nature of the data set: [35S]GTPγS binding assay on CHO-CRTH2 cell membranes. The data set is classed as biochemical. The note with it: without addition of PGD2; 100% of Emax being the activity measured by the addition of 1 μM of PGD2. As to the method:
Adherent CHO cells expressing hCRTH2 (Euroscreen, Belgium) were cultured in 225 cm^2 cell culture flasks (Corning, USA) in 30 ml of medium. After two rinses of phosphate buffered saline (PBS), cells were harvested in 10 ml of PBS containing 1 mM EDTA, centrifuged at 500×g for 5 min at 4° C. and frozen at −80° C. The pellet was re-suspended in 50 mM Tris-HCl, pH 7.4, 2 mM EDTA, 250 mM Sucrose, containing protease inhibitor cocktail tablets, (Complete EDTA-free, Roche, Germany) and incubated 30 min at 4° C. Cells were disrupted by nitrogen cavitation (Parr Instruments, USA) at 4° C. (800 p.s.i. for 30 min), and centrifuged at 500×g for 10 min at 4° C. Pellet containing nuclei and cellular debris was discarded and supernatant was centrifuged 60 min at 4° C. at 45000×g. Membrane pellet was re-suspended in storage buffer (10 mM HEPES/KOH pH 7.4, 1 mM EDTA, 250 mM sucrose, protease inhibitor cocktail tablets) using Dounce homogenization and frozen in liquid nitrogen, and stored at 80° C.
The [^35S]GTPγS assay measures the increase in guanine nucleotide exchange at G-proteins in cell membranes, resulting from agonist (PGD2) binding to CRTH2. […] Briefly, Compounds of Formula (I) are incubated in 96-well scintillating white polystyrene plates (Perkin Elmer, USA) in a final volume of 200 μl containing 20 mM HEPES/KOH pH 7.4, 3 mM MgCl2, 10 μg/ml Saponin, 5 μM GDP, 75 mM NaCl and 2% of dimethylsulphoxide (DMSO). […] After 60 min incubation at 30° C., reaction is stopped by centrifugation at 700×g, at 4° C. for 10 minutes and supernatant is removed. […] For IC50 determination, increasing concentrations of compounds are incubated in presence of a fixed concentration of PGD2 (EC80). For EC50 measurements, compounds are incubated without addition of PGD2. Basal [^35S]GTPγS activity is determined without addition of any ligands or compounds. 100% [^35S]GTPγS activity is measured by the addition of 1 μM of PGD2.
(In general: Binding of GTPγS marks nucleotide exchange on a G protein.)

Data set [4] can be described thus: In vivo pharmacokinetic evaluation in mouse. To be noted: mice; for clearance / AUC / bioavailability: female, C57BL/6, mouse, plasma; for clearance: iv. As to the method: In order to study the pharmacokinetic (PK) profile of test compounds in vivo, Sprague Dawley male rats or C57BL/6 female mice were dosed intravenously or after oral gavage. For both species, test compounds were dosed in solution at 1 mg/kg for i.v. route (10% ethanol, 10% N,N-dimethylacetamide, 30% propylene glycol, 50% water, v/v) and in suspension at 5 mg/kg (0.5% carboxymethylcellulose suspension, containing 0.25% Tween 20 in water) for oral gavage. PK profile in rat was obtained from 3 animals per dosing route and mouse PK profile was determined from 3 animals for each time points. The volume of administration was 2 mL/kg for i.v. dosing in both species and either 5 mL/kg (rat) or 10 mL/kg (mouse) for oral gavage. Blood samples (100 μL/time point) were collected at 0.083 (5 min), 0.25, 0.5, 1, 4, 7 and 24 hours post-dose for i.v. dosing, and at 0.5, 1, 4, 7 and 24 h for oral dosing, into heparin-Li+ containing tubes. For rats, all blood samples were collected trough a catheter in the carotid artery (placed in the artery the day before the experiment), under light isoflurane anesthesia, and stored on ice until centrifugation and plasma isolation. For mouse, blood samples were collected from intracardiac puncture at sacrifice at each time point and processed as described above for the rat. Plasma samples were stored frozen until analysis (−20° C. to −70° C.). For bioanalysis, samples were processed by protein precipitation (acetonitrile, formic acid 0.1%, addition of 3 volumes) after addition of one internal standard and analysed using a sensitive and selective LC/MS/MS method. An aliquot of the resulting supernatant was subject to LC/MS/MS analysis using a reverse phase column (Waters Xterra, C8, (3.5 μm particle size, 2.1×50 mm) and a short gradient (1 min) from (Solvent A) 85% water, 15% acetonitrile and 0.1% formic acid to (Solvent B) 90% acetonitrile, 10% water and 0.1% formic acid followed by isocratic conditions of Solvent B for 3.5 min at 0.4 mL/min. Column effluent was monitored using a Sciex API 4000 triple quadrupole mass spectrometer with a Turbo V electrospray ion source. Unknown concentrations of test compounds were determined using a calibration curve ranging from 1 to 3000 ng/mL.

The term pIC50 denotes the IC50 on a negative log10 scale, so that one unit is a factor of ten. Higher therefore signals a small IC50. By IC50 is commonly meant the concentration at which inhibition is half-maximal. `CCCCC(=O)N(Cc1ccc2c(c1)OCCO2)c1cccc(-c2nnn[nH]2)c1` [Example 5, N-(2,3-dihydro-1,4-benzodioxin-6-ylmethyl)-N-[3-(1H-tetrazol-5-yl)phenyl]pentanamide] gave a pIC50 at CRTH2 (DP2) of 8.06. Further, the IC50 was found to be 0.076 µM on CRTH2 [1] and 0.536 µM in data set [2].
For `CCC(=O)N(Cc1ccc2c(c1)OCCO2)c1cc(-c2nnn[nH]2)ccc1F` [Example 9, N-(2,3-dihydro-1,4-benzodioxin-6-ylmethyl)-N-[2-fluoro-5-(1H-tetrazol-5-yl)phenyl]propanamide], at CRTH2 (DP2), the pIC50 is 7.82. For the same compound, the half-maximal inhibitory concentration (IC50) in data set [2] came to 1.17 µM.
In general, Emax refers to the size of the effect at its maximum, as opposed to the concentration needed. For the compound `CCCCC(=O)N(Cc1ccc(OC)cc1)c1cc(Cl)cc(-c2nnn[nH]2)c1` [Example 46, N-[3-chloro-5-(1H-tetrazol-5-yl)phenyl]-N-(4-methoxybenzyl)pentanamide], the pIC50 on CRTH2 (DP2) is 8.38. For the same compound, the Emax at CRTH2 [3] is -9.5%. For the same compound, it took 0.245 µM to reach half-maximal inhibition in data set [2] (IC50).
One may read the clearance as the rate of elimination divided by the concentration. A high value points to a high capacity for elimination. For orientation: AUC means concentration integrated over time. By bioavailability is commonly meant the share of a dose that reaches the circulation, judged against a reference dose that is usually intravenous. Take `C#Cc1cccc(CN(C(=O)CCCC)c2cc(-c3nnn[nH]3)ccc2F)c1` [Example 1, N-(3-ethynylbenzyl)-N-[2-fluoro-5-(1H-tetrazol-5-yl)phenyl]pentanamide]: the negative logarithm of the IC50 (pIC50) at CRTH2 (DP2) is 7.92. Also, the IC50 on CRTH2 [1] came to 0.096 µM. The same compound had a clearance in data set [4] (i.v. 1 mg/Kg) of 1.67 mL/min/kg. The compound also yielded an AUC in data set [4] (oral gavage 5 mg/Kg) of 12200 ng·h/mL. Further, the bioavailability in data set [4] (po 5 mg/Kg vs iv 1 mg/Kg) was determined as 33%.
With `CCCCC(=O)N(Cc1cccc(OC)c1)c1cccc(-c2nnn[nH]2)c1` [Example 13, N-(3-methoxybenzyl)-N-[3-(1H-tetrazol-5-yl)phenyl]pentanamide], the pIC50 at CRTH2 (DP2) is 7.28. The compound further returned a half-maximal inhibitory concentration (IC50) in data set [2] of 0.914 µM.
As to `CCC(=O)N(Cc1ccc(OC(F)(F)F)c(Cl)c1)c1cc(F)cc(-c2nnn[nH]2)c1` [Example 56, N-[3-chloro-4-(trifluoromethoxy)benzyl]-N-[3-fluoro-5-(1H-tetrazol-5-yl)phenyl]propanamide], at CRTH2 (DP2), the pIC50 is 7.62. For the same compound, the Emax at CRTH2 [3] is -13%. 0.082 µM corresponded to half-maximal inhibition in data set [2] (IC50). Moreover, the clearance in data set [4] (i.v. 1 mg/Kg) was 15 mL/min/kg. Further, in data set [4] (oral gavage 5 mg/Kg), the exposure (AUC) is 1910 ng·h/mL. This compound had a bioavailability in data set [4] (po 5 mg/Kg vs iv 1 mg/Kg) of 36%.
In the case of `CCC(=O)N(Cc1ccc(C(F)(F)F)cc1)c1cc(F)cc(-c2nnn[nH]2)c1` [Example 58, N-[3-fluoro-5-(1H-tetrazol-5-yl)phenyl]-N-[4-(trifluoromethyl)benzyl]propanamide], at CRTH2 (DP2), the negative logarithm of the IC50 (pIC50) is 8.15. The Emax on CRTH2 [3] was -8.1%. Inhibition in data set [2] was half-maximal at 0.102 µM (IC50). For the same compound, the “Clearance iv (1 mg/Kg)” value in data set [4] (i.v. 1 mg/Kg) worked out at 5 mL/min/kg. For the same compound, the “AUC po (5 mg/Kg)” value in data set [4] (oral gavage 5 mg/Kg) is 11212 ng·h/mL. The Oral bioavailability in data set [4] (po 5 mg/Kg vs iv 1 mg/Kg) is on record as 76%.
`CCCCC(=O)N(Cc1ccc2c(c1)OCCO2)c1cc(F)cc(-c2nnn[nH]2)c1` [Example 11, N-(2,3-dihydro-1,4-benzodioxin-6-ylmethyl)-N-[3-fluoro-5-(1H-tetrazol-5-yl)phenyl]pentanamide] had a pIC50 on CRTH2 (DP2) of 8.64. Also, the Emax at CRTH2 [3] is -14.9%. In data set [2], this compound gave an IC50 of 0.039 µM.
One may read the melting point as the temperature of the solid-liquid transition. For `CCC(=O)N(Cc1ccc(OC(F)(F)F)cc1)c1cc(Cl)cc(-c2nnn[nH]2)c1` [Example 57, N-[3-chloro-5-(1H-tetrazol-5-yl)phenyl]-N-[4-(trifluoromethoxy)benzyl]propanamide], the melting point stood at 144 °C. This compound also gave a pIC50 at CRTH2 (DP2) of 7.82. In addition, in data set [2], the half-inhibitory concentration (IC50) is 0.233 µM.
